Data from patent publication US5817651A, “3-arylcarbonyl-1-(C-attached-N-heteryl)-1H-indoles” (Sanofi, priority 1997, dated 1998).
Like-named read-outs stand apart in the source and are kept apart here.

What was measured:
[1] = tested on: adjuvant induced arthritis; experiment: developing adjuvant arthritis (AA) assay; format: in vivo; design: key: Non-statistically significant results are recorded as "------ "; conditions: arthritic rats; printed * = p<0.01, ** = p<0.05
Method in brief: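 Rats given complete Freund's adjuvant into the right hindpaw on day 1. Drug treatment begins while disease is developing but not yet irreversible. Swelling of non-injected (NIP) and injected (RPV) paws read 15–20 days later, expressed as percent inhibition; active at p<0.05.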

paw pressure = experiment: Randall-Selitto (RS) paw pressure test; format: in vivo; conditions: oral administration; read-out: RS minimum effective dose, MED
From the text: (§1) The test procedures used to determine the analgesic activities of the compounds have been described in detail in the prior art and are as follows: The acetylcholine-induced abdominal constriction test, which is a primary analgesic screening test designed to measure the ability of a test agent to suppress acetylcholine-induced abdominal constriction in mice, described by Collier et al., Brit. J. Pharmacol. Chemotherap. 32, 295 (1968); a modification of the anti-bradykinin test, which is also a primary analgesic screening procedure, described by Berkowitz et al., J. Pharmacol. Exptl. Therap. 177, 500-508 (1971), Blane et al., J. Pharm. Pharmacol. 19, 367-373 (1967), Botha et al., Eur. J. Pharmacol. 6, 312-321 (1969) and Deffenu et al., J. Pharm. Pharmacol. 18, 135 (1966); and the Randall-Selitto analgesic test described by Randall and Selitto, Arch. Int. Pharmacodyn., 111, 409-419 (1957).
(§2) Data in the developing adjuvant arthritis (AA) and plasma fibronectin (FN) assays are expressed as percent inhibition, i.e. inhibition of non-injected paw inflammation (NIP) and injected paw (RPV) and lowering of plasma fibronectin, the asterisks * and ** indicating statistical significance at the p<0.01 and p<0.05 levels, respectively. Compounds are considered active at p<0.05 level. Non-statistically significant results are recorded as "------ ". In the acetylcholine-induced abdominal constriction test, the test compounds were administered either as suspensions in gum tragacanth (GT) or as aqueous solutions prepared by addition of just sufficient dilute aqueous methanesulfonic acid (MS) or dilute aqueous lactic acid (LA) to dissolve the compound. The compounds are identified by the example number above where their preparations are described. All data in the anti-bradykinin, rat writhing and Randall-Selitto tests were obtained on oral administration.

[2] = tested on: acetic acid-induced writhing; experiment: acetic acid-induced writhing assay in the rat (RW); format: in vivo; conditions: for ED50: Rattus norvegicus, po, oral administration; for RW percent inhibition at dose 30: oral, dose level 30
Method in brief: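 Rats received the test compounds by the oral route. The read-out was abdominal writhing.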

[3] = tested on: mouse vasa deferentia preparation; experiment: mouse vas deferens test (MVD); format: cell-based; conditions: Mus musculus, inhibition of contractions, in vitro; active at 5.0 μM or less
From the text: It has been shown previously that smoking marijuana reduces intraocular pressure in man [Helper and Frank, Marijuana Smoking and Intraocular Pressure., J. Am. Med. Assoc. 217, 1392 (1971)]. Topical application or systemic injection of delta-9 tetrahydrocannabinol, a principal active ingredient in marijuana, also reduces intraocular pressure [Purnell and Gregg, delta-9 Tetrahydrocannabinol, Euphoria and Intraocular Pressure in Man., Ann. Opth. 7, 921-923 (1975); Green and Pederson, Effect of delta-9 Tetrahydrocannabinol on Aqueous Dynamics and Ciliary Body Permeability in the Rabbit Eye., Exptl. Eye Research 15, 499-507 (1973); Colasanti, Craig and Allara, Intraocular Pressure, Ocular Toxicity and Neurotoxicity after Administration of Cannabinol or Cannibigerol, Exptl. Eye Research 39, 252-259 (1984)]. Similarly, synthetic cannabinoids also reduce intraocular pressure [Green, Symunds, Oliver and Elijah, Intraocular Pressure Following Systemic Administration of Cannabinoids., Curr. Eye Research 2, 247-253 (1982); Tiedeman, Shields, Weber, Crow, Coccetto, Harris and Howes, Opthalmology, 88, 270-277 (1981); Colasanti et al., supra]. Cannabinoid receptor binding sites can be defined as those to which radio-labelled 4-(1,1-dimethylheptyl)-2,3'-dihydroxy-6'alpha-(3-hydroxypropyl)-1', 2', 3', 4', 5', 6'-hexahydrobiphenyl (CP 55940) binds in a specific and saturable manner and the binding sites are heterogeneously distributed in the brain [Devane, Dysarz, Johnson, Melvin and Howlett, Determination and Characterization of a Cannabinoid Receptor in Rat Brain, Molecular Pharm. 34, 605-613 (1988)]. Natural and synthetic cannabinoids and certain of the compounds of the present invention, as more particularly described above, bind to CP 55940 binding sites. […] It is believed that agonist activity at the cannabinoid receptor mediates the anti-glaucoma actions of cannabinoids, and that agonist activity at this receptor correlates with ocular pressure lowering actions in man. Accordingly the cannabinoid receptor agonist activity of the compounds of the present invention indicate their usefulness in reducing ocular pressure.

bradykinin = experiment: anti-bradykinin test (BDK); format: in vivo; design: key to BDK result (po): The abbreviations IA and Depr. represent, respectively, inactive and depressant; The abbreviations IA and Depr. represent, respectively, inactive and depressant
From the text: as §1, §2

[4] = tested on: acetylcholine-induced abdominal constriction; experiment: acetylcholine-induced abdominal constriction test (ACH); format: in vivo; design: key to ACH remark (Depr. = depressant): The abbreviations IA and Depr. represent, respectively, inactive and depressant; The abbreviations IA and Depr. represent, respectively, inactive and depressant; conditions: mice; for ACH remark (Depr. = depressant): remark beside the ED50
Method in brief: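 Compounds were given as gum tragacanth suspensions or as aqueous solutions dissolved with dilute methanesulfonic or lactic acid.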

[5] = target: T1, Cannabinoid receptor (CP 55940 binding sites) (Rattus norvegicus, UniProt P20272); experiment: CP 55940 binding assay
T1 construct: from tissue

[6] = Mus musculus, Table 9, Examples, no route marked in the cell, read-out: ACH ED50
[7] = Mus musculus, iv, Table 9, iv, read-out: ACH ED50 (iv)

T1 sequence (P20272 whole entry): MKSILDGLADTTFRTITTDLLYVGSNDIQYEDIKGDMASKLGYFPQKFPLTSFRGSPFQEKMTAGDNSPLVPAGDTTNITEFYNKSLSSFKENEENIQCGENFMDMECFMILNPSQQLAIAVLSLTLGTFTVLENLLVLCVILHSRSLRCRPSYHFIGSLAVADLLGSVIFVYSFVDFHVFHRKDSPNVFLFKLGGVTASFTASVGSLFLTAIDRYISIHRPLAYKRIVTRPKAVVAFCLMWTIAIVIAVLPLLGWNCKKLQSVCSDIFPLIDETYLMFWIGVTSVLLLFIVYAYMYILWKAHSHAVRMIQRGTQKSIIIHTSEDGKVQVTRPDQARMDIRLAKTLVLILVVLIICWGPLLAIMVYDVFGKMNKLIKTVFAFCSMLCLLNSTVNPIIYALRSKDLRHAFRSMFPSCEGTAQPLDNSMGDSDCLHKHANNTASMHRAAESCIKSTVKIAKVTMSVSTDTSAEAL

Structure (SMILES)	NIP: percent inhibition of non-injected paw inflammation [1]	RPV: percent inhibition of injected paw [1]	minimal effective dose (paw pressure)	ED50 [2]	IC50 [3]	ED50 [4, 6]	ED50 [4, 7]	also measured
COc1ccc(C(=O)c2c(C)n(CC3CCCN3C)c3ccccc23)cc1 (racemic) [Example 2E]	--	24%	0.03 mg/kg	6 mg/kg	63 nM	27 mg/kg	6 mg/kg	BDK result (po) (bradykinin; po): IA
COc1ccc(C(=O)c2c(C)n(C[C@@H]3CC[C@@H](C)N3C)c3ccccc23)cc1 (relative stereo) [Example 1Y]	67%	48%		3 mg/kg	52 nM	21 mg/kg	2 mg/kg	ED50 ([4]; Mus musculus, sc, Table 9, sc, read-out: ACH ED50 (sc)): 10 mg/kg
Cc1c(C(=O)c2cccc3ccccc23)c2ccccc2n1CC1CCCN(C)C1 (stereo not shown) [Example 1M]			0.1 mg/kg		91 nM		7 mg/kg	inhibition in vivo at 100 mg/kg ([4]; Mus musculus, Table 9, dose level 100, read-out: ACH percent inhibition at dose 100): 25%
COc1ccc(C(=O)c2c(C)n(C3CCN(C)C3)c3ccccc23)cc1 (stereo not shown) [Example 1X]	--	23%		12 mg/kg	150 nM	20 mg/kg		
COc1ccc(C(=O)c2c(C)n(CC3CCN(C)CC3)c3ccccc23)cc1 [Example 2AH]						4 mg/kg		RW percent inhibition at dose 30 [2]: 74%; BDK percent inhibition at dose 3 (bradykinin; oral, dose level 3): 30%; ACH ED50 ([4]; Table 9, Examples, no route marked in the cell): 5 mg/kg
COc1ccc(C(=O)c2c(C)n(CCC3CCCN3C)c3ccccc23)cc1 (stereo not shown) [Example 2B]			10 mg/kg	25 mg/kg		32 mg/kg	8 mg/kg	ACH ED50 ([4]; Table 9, Examples, no route marked in the cell, listed as 2B(HCl)): 23 mg/kg
COc1ccc(C(=O)c2c(C)n(CC3CCCN(C)C3)c3ccccc23)cc1 (stereo not shown) [Example 2D]	99%	78%		2 mg/kg		8 mg/kg		ED50 (bradykinin; oral administration): 2.4 mg/kg
COc1ccc(C(=O)c2cn(CCC3CCCCN3C)c3ccccc23)cc1 (stereo not shown) [Example 2F]			3 mg/kg			45 mg/kg	4 mg/kg	
COc1ccc(C(=O)c2c(C)n(CC3CCCCN3C)c3ccccc23)cc1 (stereo not shown) [Example 2H]	69%	51%		22 mg/kg	134 nM	33 mg/kg		
COc1ccc(C(=O)c2cn(CC3CCCCN3C)c3ccccc23)cc1 (stereo not shown) [Example 2J]	66%	27%		0.5 mg/kg	3 nM	6 mg/kg		ACH remark (Depr. = depressant) ([4]; Table 9): Depr.
CN1CCCCC1Cn1cc(C(=O)c2cccc3ccccc23)c2ccccc21 (stereo not shown) [Example 2P]					0.22 nM	9 mg/kg	0.03 mg/kg	RW percent inhibition at dose 30 [2]: 98%; IC50 [5]: 1.4 nM; ACH ED50 (iv) ([4]; Table 9, iv): 0.05 mg/kg; ACH remark (Depr. = depressant) ([4]; Table 9): Depr.
Cc1c(C(=O)c2cccc3ccccc23)c2ccccc2n1CC1CCCCN1C (stereo not shown) [Example 2R]	57%	29%			1 nM	22 mg/kg		RW percent inhibition at dose 30 [2]: 100%
